The assay in a line: Displacement of [3H]Ro151788 from GABA-A receptor in Wistar rat cerebellar membrane after 1 hr by liquid scintillation counting. It is filed as cell membranes, Cerebellum.

One may read the Ki as a measure of affinity in units of concentration, obtained from inhibition or displacement. Lower therefore signals higher affinity. On to `O=C(NCCCF)c1c[nH]c2ccc(Cc3ccccc3)cc2c1=O`, for which affinity was put at a Ki of 0.13 nM.

Values taken from ChEMBL document CHEMBL1208702, “Use of 2-[(18)F]fluoroethylazide for the Staudinger ligation - Preparation and characterisation of GABA(A) receptor binding 4-quinolones” (Bioorg Med Chem Lett, 2010).
